We go through 9 molecules from ChEMBL document CHEMBL1201862, “PubChem BioAssay data set” (2004).

Usually GI50 stands for the concentration at which growth is held to half of that of the control.

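A five-concentration, 48-hour dose response in 96-well plates underlies each endpoint, interpolated linearly between surrounding concentrations. At the GI50, growth is halved.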 Active and inactive are the calls of the source. No stated cut-off is given here; in the data, active = GI50 up to about 1.1 µM and inactive = higher.

Holding throughout (experiment): DTP human tumour cell line panel, 48 h
The subject of experiment [1] is ACHN.
Experiment [2] deals with COLO 205.
In experiment [3] the test system is EKVX.
Experiment [4] has as its system SF-268.
Experiment [5] deals with SNB-19.
Experiment [6] concerns U-251.
The test system of experiment [7] is UACC-62.
Experiment [8] concerns K562.
For experiment [9], the system named is RXF 393.
Experiment [10] concerns HCT-116.
Experiment [11] has as its system SK-MEL-2.
Experiment [12] deals with DMS-114.
The test system of experiment [13] is SK-MEL-28.
Experiment [14] has as its system OVCAR-3.
For experiment [15], the system named is SW-620.
In experiment [16] the test system is HOP-92.
In experiment [17] the test system is UACC-257.
The test system of experiment [18] is HCT-15.

In the case of `CCCCN(CCCC)CCCn1cnc2ncccc2c1=O`, the GI50 in experiment [1] was > 100 µM (inactive); in [2], 65.6 µM (inactive); in experiment [3], > 100 µM (inactive); in experiment [4], > 100 µM (inactive); in experiment [5] it was > 100 µM (inactive); in experiment [6], > 100 µM (inactive). The GI50 in experiment [7] is > 100 µM (inactive); in [8], > 100 µM (inactive); in experiment [9] it was > 100 µM (inactive); in experiment [10], > 100 µM (inactive); in [11] it was > 100 µM (inactive); in [12] it was 53.6 µM (inactive). The GI50 in experiment [13], in experiment [14], in [15] and in [16] was > 100 µM (inactive) in each case.
On to `N#CC(C#N)=c1c2nsnc2c(=C(C#N)C#N)c2nsnc12`, for which the GI50 in experiment [1] was 1.81 µM (inactive); in [2] it was 2.52 µM (inactive); in [3], 4.2 µM (inactive); in experiment [4], 2.3 µM (inactive); in experiment [5], 2.16 µM (inactive); in experiment [6], 1.79 µM (inactive). For the same molecule, the GI50 is 1.28 µM (inactive) in [9]; 1.98 µM (inactive) in experiment [10]; 2.02 µM (inactive) in [11]; 1.91 µM (inactive) in experiment [12]; 1.87 µM (inactive) in experiment [13]; 1.94 µM (inactive) in [17]. The GI50 in experiment [14] is 3.66 µM (inactive); in [15], 1.47 µM (inactive); in experiment [16], 1.45 µM (inactive).
Consider `Cc1cc2c(=O)c3ccc(Cl)cc3[nH]c2c(C(=O)O)c1C`, for which the GI50 in experiment [1], in [2], in [3], in experiment [4], in experiment [5] and in [6] was > 100 µM (inactive) throughout. For the same molecule, the GI50 in experiment [7] is > 100 µM (inactive); in experiment [18] it was over 100 µM; in experiment [8] it was > 100 µM (inactive); in experiment [9] it was 47.5 µM (inactive); in [10], > 100 µM (inactive); in [11], > 100 µM (inactive). In addition, the GI50 in experiment [12], in [13], in experiment [17], in experiment [14] and in experiment [15] was > 100 µM (inactive) throughout.
Regarding `O=[N+]([O-])C(=C(c1ccccc1)c1ccccc1)[N+](=O)[O-]`, the GI50 in experiment [1] was 12.8 µM (inactive); in experiment [2] it was 12.4 µM (inactive); in [3], > 10 µM (inactive); in [4] it was 4.57 µM (inactive); in experiment [5], 15.7 µM (inactive); in experiment [6], 13.6 µM (inactive). Besides, the GI50 in [7] was 3.79 µM (inactive); in experiment [18] it was 13.8 µM; in [8], 20.5 µM (inactive); in experiment [9], 3.69 µM (inactive); in experiment [10], 11.9 µM (inactive); in [11], 2.43 µM (inactive). Besides, the GI50 is 18.7 µM (inactive) in experiment [12]; 7.98 µM (inactive) in [13]; 13.1 µM (inactive) in experiment [17]; 20.7 µM (inactive) in experiment [14]; 11.4 µM (inactive) in experiment [15].
In the case of `COc1ccc2c(C(=O)O)cc3ccccc3c2c1OC`, the GI50 in [1] is 16.3 µM (inactive); in [2], 22.1 µM (inactive); in [3], 20.1 µM (inactive); in experiment [4], 19.4 µM (inactive); in experiment [5], 43.6 µM (inactive); in experiment [6], 40.9 µM (inactive). Moreover, the GI50 in experiment [7] was 15.2 µM (inactive); in experiment [8], 24.2 µM (inactive); in experiment [9], 15.2 µM (inactive); in experiment [10] it was 18.6 µM (inactive); in experiment [11], 30.5 µM (inactive); in [12], 17.7 µM (inactive). The GI50 is 18.5 µM (inactive) in experiment [13]; 17.1 µM (inactive) in experiment [17]; 16.6 µM (inactive) in experiment [14]; 19.4 µM (inactive) in experiment [15]; 21.9 µM (inactive) in experiment [16].
As to `C=CCN1CCC23c4c5ccc(O)c4OC2C(=NN=C2CCC4(O)C6Cc7ccc(O)c8c7C4(CCN6CC=C)C2O8)CCC3(O)C1C5` (configuration not stated), the GI50 in experiment [1] was 20.2 µM (inactive); in experiment [2], 19.9 µM (inactive); in experiment [3] it was 28.5 µM (inactive); in [4], 53.8 µM (inactive); in [5] it was 44.3 µM (inactive); in experiment [6], 18.9 µM (inactive). The GI50 is 21 µM (inactive) in experiment [7]; 35.5 µM in experiment [18]; 26.2 µM (inactive) in experiment [8]; 18 µM (inactive) in experiment [11]; 24.7 µM (inactive) in experiment [12]; 17.3 µM (inactive) in experiment [13]. In addition, the GI50 was 23.9 µM (inactive) in [17], 18.5 µM (inactive) in experiment [14], 21.4 µM (inactive) in [15] and 17.6 µM (inactive) in experiment [16].
As to `CCOC(=O)C1N(S(=O)(=O)c2ccc(C)cc2)CCC12c1ccccc1N(C(C)=O)C2c1ccc(OC)c(OC)c1` (configuration not stated), the GI50 in experiment [1], in experiment [2], in experiment [3], in experiment [4], in experiment [5] and in [6] was > 100 µM (inactive) throughout. For the same molecule, the GI50 in experiment [7] was > 100 µM (inactive); in experiment [8] it was 80.7 µM (inactive); in [9] it was > 100 µM (inactive); in experiment [10], 47.4 µM (inactive); in experiment [12], > 100 µM (inactive); in [13] it was > 100 µM (inactive). Besides, the GI50 in [17] was > 100 µM (inactive); in experiment [14], > 100 µM (inactive); in experiment [15], > 100 µM (inactive); in experiment [16] it was 47.8 µM (inactive).
On to `O=C(CCC(=O)C(C(=O)c1ccccc1)c1ccccc1)Nc1cccc(C(F)(F)F)c1` (configuration not stated), for which the GI50 in experiment [1], in experiment [2], in [3], in [4], in [5] and in [6] was > 100 µM (inactive) throughout. Further, the GI50 in experiment [7] was > 100 µM (inactive); in [18] it was over 100 µM; in experiment [8], > 100 µM (inactive); in [10], > 100 µM (inactive); in experiment [11] it was > 100 µM (inactive); in experiment [12], > 100 µM (inactive). Further, the GI50 in [17], in [14], in [15] and in experiment [16] was > 100 µM (inactive) each time.
Turning to `COC(=O)C(Cc1c[nH]c2ccccc12)NC(=O)C(Cc1c[nH]c2ccccc12)NC(=O)OCc1ccccc1` (configuration not stated), the GI50 is 21.6 µM (inactive) in [1]; 16.8 µM (inactive) in experiment [2]; 18.6 µM (inactive) in experiment [3]; 19.1 µM (inactive) in experiment [4]; 17.5 µM (inactive) in [5]; 16.9 µM (inactive) in experiment [6]. Moreover, the GI50 was 19.3 µM (inactive) in experiment [7]; 17.4 µM in experiment [18]; 23.6 µM (inactive) in experiment [8]; 19.5 µM (inactive) in experiment [9]; 17.9 µM (inactive) in experiment [10]; 19.4 µM (inactive) in experiment [12]. The GI50 is 17.7 µM (inactive) in [13]; > 100 µM (inactive) in [17]; 15.5 µM (inactive) in [14]; 17.5 µM (inactive) in experiment [15]; 20 µM (inactive) in experiment [16].
